Reference: PubChem BioAssay AID1919014 (Molecular Pharmacology Branch, DTP, NCI, 2023)

System: NCI-H1341 complex spheroids, percent test/control
Test: Anticancer human tumor NCI-H1341 cell line growth inhibition [AhR];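 note: spheroids exposed to agents for seven days before readout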
Conditions: for IC50: curve of first compound; for viability, T/C: stronger effect = lower value
How it was run: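 Agents were dosed in half-log steps down from roughly clinical Cmax, or from 10 microM where Cmax was unknown, alone and with AhR antagonists. Read-out: percent test/control growth of tumor spheroids containing HUVEC and MSC stromal cells.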

[1] = second compound 0.1 µM, first compound 0.00949 µM
[2] = second compound 0.1 µM, first compound 0.03 µM
[3] = second compound 0.1 µM, first compound 0.0949 µM
[4] = second compound 0.1 µM, first compound 0.3 µM
[5] = second compound 0.316 µM, first compound 0.00949 µM
[6] = second compound 0.316 µM, first compound 0.03 µM
[7] = second compound 0.316 µM, first compound 0.0949 µM
[8] = second compound 0.316 µM, first compound 0.3 µM
[9] = second compound 1 µM, first compound 0.00949 µM
[10] = second compound 1 µM, first compound 0.03 µM
[11] = second compound 1 µM, first compound 0.0949 µM
[12] = second compound 1 µM, first compound 0.3 µM
[13] = second compound 3.16 µM, first compound 0.00949 µM
[14] = second compound 3.16 µM, first compound 0.03 µM
[15] = second compound 3.16 µM, first compound 0.0949 µM
[16] = second compound 3.16 µM, first compound 0.3 µM
[17] = second compound 10 µM, first compound 0.00949 µM
[18] = second compound 10 µM, first compound 0.03 µM
[19] = second compound 10 µM, first compound 0.0949 µM
[20] = second compound 10 µM, first compound 0.3 µM

Compound: O=C(C=Cn1cnc(-c2cc(C(F)(F)F)cc(C(F)(F)F)c2)n1)NNc1cnccn1 + CC(CO)NC(=O)c1cc(-c2ccc(Cl)cc2)nn(-c2cnn(C)c2)c1=O
- IC50 (second compound 0.1 µM): 47.3 nM
- IC50 (second compound 0.316 µM): 38.7 nM
- IC50 (second compound 1 µM): 53.4 nM
- IC50 (second compound 3.16 µM): 39.2 nM
- IC50 (second compound 10 µM): 32.2 nM
- viability, T/C [1]: 70.1%
- viability, T/C [2]: 66%
- viability, T/C [3]: 25.8%
- viability, T/C [4]: 8.14%
- viability, T/C (second compound 0.1 µM, first compound 0.949 µM): 7.31%
- viability, T/C (second compound 0.1 µM, first compound 3 µM): 3.24%
- viability, T/C [5]: 81.5%
- viability, T/C [6]: 56.4%
- viability, T/C [7]: 26.9%
- viability, T/C [8]: 8.82%
- viability, T/C (second compound 0.316 µM, first compound 0.949 µM): 4.72%
- viability, T/C (second compound 0.316 µM, first compound 3 µM): 3.56%
- viability, T/C [9]: 72.9%
- viability, T/C [10]: 76.5%
- viability, T/C [11]: 25.3%
- viability, T/C [12]: 7.32%
- viability, T/C (second compound 1 µM, first compound 0.949 µM): 5.36%
- viability, T/C (second compound 1 µM, first compound 3 µM): 3.2%
- viability, T/C [13]: 70.9%
- viability, T/C [14]: 56.6%
- viability, T/C [15]: 27.3%
- viability, T/C [16]: 7.55%
- viability, T/C (second compound 3.16 µM, first compound 0.949 µM): 4.07%
- viability, T/C (second compound 3.16 µM, first compound 3 µM): 4.94%
- viability, T/C [17]: 62.8%
- viability, T/C [18]: 51%
- viability, T/C [19]: 27.2%
- viability, T/C [20]: 8.24%
- viability, T/C (second compound 10 µM, first compound 0.949 µM): 5.11%
- viability, T/C (second compound 10 µM, first compound 3 µM): 4.13%

Compound: CC1COCCN1c1cc(-c2ccnn2C)c2ccnc(-c3ccn[nH]3)c2n1 (stereo not given) + Cc1ccccc1N=Nc1ccc(NC(=O)c2ccnn2C)c(C)c1
- IC50 (second compound 0.1 µM): 97.6 nM
- IC50 (second compound 0.316 µM): 60.6 nM
- IC50 (second compound 1 µM): 113 nM
- IC50 (second compound 3.16 µM): 67.5 nM
- IC50 (second compound 10 µM): 9.13 nM
- viability, T/C (second compound 0.1 µM, first compound 0.00316 µM): 98.2%
- viability, T/C (second compound 0.1 µM, first compound 0.01 µM): 99.1%
- viability, T/C (second compound 0.1 µM, first compound 0.0316 µM): 74.2%
- viability, T/C (second compound 0.1 µM, first compound 0.1 µM): 48.5%
- viability, T/C (second compound 0.1 µM, first compound 0.316 µM): 38.3%
- viability, T/C (second compound 0.1 µM, first compound 1 µM): 26.2%
- viability, T/C (second compound 0.316 µM, first compound 0.00316 µM): 104%
- viability, T/C (second compound 0.316 µM, first compound 0.01 µM): 102%
- viability, T/C (second compound 0.316 µM, first compound 0.0316 µM): 65.6%
- viability, T/C (second compound 0.316 µM, first compound 0.1 µM): 39.3%
- viability, T/C (second compound 0.316 µM, first compound 0.316 µM): 34.8%
- viability, T/C (second compound 0.316 µM, first compound 1 µM): 29%
- viability, T/C (second compound 1 µM, first compound 0.00316 µM): 82.6%
- viability, T/C (second compound 1 µM, first compound 0.01 µM): 92%
- viability, T/C (second compound 1 µM, first compound 0.0316 µM): 70.8%
- viability, T/C (second compound 1 µM, first compound 0.1 µM): 52.6%
- viability, T/C (second compound 1 µM, first compound 0.316 µM): 34.3%
- viability, T/C (second compound 1 µM, first compound 1 µM): 25.9%
- viability, T/C (second compound 3.16 µM, first compound 0.00316 µM): 84%
- viability, T/C (second compound 3.16 µM, first compound 0.01 µM): 72.7%
- viability, T/C (second compound 3.16 µM, first compound 0.0316 µM): 55.1%
- viability, T/C (second compound 3.16 µM, first compound 0.1 µM): 44.4%
- viability, T/C (second compound 3.16 µM, first compound 0.316 µM): 40.8%
- viability, T/C (second compound 3.16 µM, first compound 1 µM): 27.6%
- viability, T/C (second compound 10 µM, first compound 0.00316 µM): 53.8%
- viability, T/C (second compound 10 µM, first compound 0.01 µM): 51%
- viability, T/C (second compound 10 µM, first compound 0.0316 µM): 44.3%
- viability, T/C (second compound 10 µM, first compound 0.1 µM): 37.1%
- viability, T/C (second compound 10 µM, first compound 0.316 µM): 30.7%
- viability, T/C (second compound 10 µM, first compound 1 µM): 25.6%

Compound: CCc1c2c(nc3ccc(O)cc13)-c1cc3c(c(=O)n1C2)COC(=O)[C@]3(O)CC + Cc1ccccc1N=Nc1ccc(NC(=O)c2ccnn2C)c(C)c1
- IC50 (second compound 0.1 µM): 13.1 nM
- IC50 (second compound 0.316 µM): 25.3 nM
- IC50 (second compound 1 µM): 17.2 nM
- IC50 (second compound 3.16 µM): 11.7 nM
- IC50 (second compound 10 µM): 9.79 nM
- viability, T/C (second compound 0.1 µM, first compound 0.000949 µM): 107%
- viability, T/C (second compound 0.1 µM, first compound 0.003 µM): 67.5%
- viability, T/C [1]: 53.4%
- viability, T/C [2]: 44.3%
- viability, T/C [3]: 37%
- viability, T/C [4]: 15.3%
- viability, T/C (second compound 0.316 µM, first compound 0.000949 µM): 92.9%
- viability, T/C (second compound 0.316 µM, first compound 0.003 µM): 84%
- viability, T/C [5]: 53.2%
- viability, T/C [6]: 49.5%
- viability, T/C [7]: 40.1%
- viability, T/C [8]: 16.5%
- viability, T/C (second compound 1 µM, first compound 0.000949 µM): 85.5%
- viability, T/C (second compound 1 µM, first compound 0.003 µM): 74.9%
- viability, T/C [9]: 50.3%
- viability, T/C [10]: 43.5%
- viability, T/C [11]: 35.5%
- viability, T/C [12]: 13.5%
- viability, T/C (second compound 3.16 µM, first compound 0.000949 µM): 75.7%
- viability, T/C (second compound 3.16 µM, first compound 0.003 µM): 58.2%
- viability, T/C [13]: 51%
- viability, T/C [14]: 43.5%
- viability, T/C [15]: 29.7%
- viability, T/C [16]: 12.1%
- viability, T/C (second compound 10 µM, first compound 0.000949 µM): 54.3%
- viability, T/C (second compound 10 µM, first compound 0.003 µM): 48.9%
- viability, T/C [17]: 48.4%
- viability, T/C [18]: 44.8%
- viability, T/C [19]: 22.6%
- viability, T/C [20]: 7.81%
